Laboratory results taken from US7435551B2, “Method for diagnosing type II diabetes or monitoring therapeutic effects of therapeutic agents for type II diabetes” (Fujirebio, Inc., priority 2001, dated 2008).

What was measured:
Type in all cases: in vivo, human
[1] = Assessment of body fat distribution by CT scan before and after three-month pioglitazone; conditions: type II diabetes patients n=10, 30 mg/day orally, mean ± S.D.
Description: The patients who had been also employed in Example 1 were subjected to the assessment of body fat distribution before and after the three-month administration of pioglitazone. Distributions of subcutaneous fat and visceral fat were determined by assessing the region of a Hounsfield unit of −150 to −50 by a method modified from the computerized tomography (CT) scan at the level of the navel by Tokunaga et al. (Tokunaga, K. et al., Int. J. Obes. 7: 437-445, 1983). CT images at the baseline and after a three-month treatment were taken in accordance with the same protocols that had been previously reported by the present inventors (Kawai, T. et al., Metabolism, 48: 1102-1107, 1999). The V/S ratio was calculated by dividing the visceral fat area (VFA) by the subcutaneous fat area (SFA).

[2] = Three-month pioglitazone administration to type II diabetes patients: body mass index and blood pressure; conditions: type II diabetes patients n=10, 30 mg/day orally, mean ± S.D.
Text: (§1) 10 male patients with type II diabetes (ages: 40 to 66, 57.7±7.4) either being only under diet therapy (n=7) or being under diet therapy and on medication of sulfonylurea (n=3) were subjected to inspection regarding the following parameters before and after a three-month administration of a thiazolidine derivative, pioglitazone. Body weights, blood glucose levels, and blood pressure levels of those patients and treatments for them were at constant levels for at least 3 months before the examination. The sulfonylurea doses for 3 patients were at constant levels during that period. Pioglitazone was administered to all 10 patients after breakfast every day (orally, 30 mg/day).
(§2) The systolic blood pressure (SBP) and the diastolic blood pressure (DBP) were measured twice in a sitting position after an at least 5-minute recess. Body heights, weights, and levels of fasting plasma glucose (FPG), HbA1C, serum insulin, adiponectin, total cholesterol (TC), triglyceride (TG), HDL-cholesterol, LDL-cholesterol, and uric acid were measured in the morning after an overnight fast. Levels of plasma glucose, lipids, and uric acid were measured by a common automated measuring technique. The serum concentration of insulin was measured using a commercially available kit, EIA (Tosoh, Tokyo), as already described (Kawai, T. et al., Metabolism 48: 1102-1107, 1999; Hirose, H. et al., Clin. Sci. (Colch) 94: 633-636, 1998; Hirose, H. et al., J. Hypertens. 16: 2007-2012, 1998; Hirose, H. et al., Clin. Sci. (Colch) 100: 145-150, 2001). The insulin resistance index was evaluated by the Homeostasis model assessment (HOMA-IR) (Matthews, D. R. et al., Diabetologia 28: 412-419, 1985; Rudenski, A. S. et al., Metabolism 40: 908-917, 1991).

[3] = Three-month pioglitazone administration to type II diabetes patients: fasting glucose, HbA1c, lipids, uric acid
Text: as §1, §2

[4] = system: adiponectin (GBP28); experiment: Serum GBP28 (adiponectin) by ELISA before and after three-month pioglitazone
Description: The patients who had been employed in Example 1 were also subjected to an assay of the blood concentration of GBP28 before and after the three-month administration of pioglitazone.
The anti-human GBP28 monoclonal antibody was prepared in the following manner. First, a solution of GBP28 (about 50 μg) isolated and purified from human serum was micellized with a complete adjuvant, and the resultant was administered to a mouse intraperitoneally. Two weeks later, the mouse was subjected to booster, the spleen was extirpated 3 days thereafter, and the B-cell was collected. The B-cell and the myeloma cell were allowed to fuse with each other to prepare hybridomas, and a hybridoma of interest was administered to a mouse intraperitoneally. Thereafter (20 days later), ascites was processed with DEAE-Sepharose Fast Flow, and the monoclonal antibody of interest was obtained.
GBP28 was assayed by ELISA in the following manner. A standard GBP28 sample, a 441-fold-diluted unknown sample, and a control sample (100 μl each) were added to a 96-well microtiter plate coated with the mouse anti-GBP28 monoclonal antibody. The plate was incubated for 60 minutes, the well was washed, and incubation was carried out for additional 30 minutes with the horseradish peroxidase-labeled mouse anti-GBP28 monoclonal antibody. The plate was washed again, and incubation was carried out for 30 minutes with a tetramethylbenzidine reagent. Subsequently, 100 μl of aqueous solution of 0.36N sulfuric acid was added to each well to terminate the reaction, and the absorbance at 450 nm was assayed. Intra- and interassay coefficients were 4.8% to 4.9% and 3.3% to 6.8%, respectively.

[5] = Three-month pioglitazone administration to type II diabetes patients: serum insulin (EIA) and HOMA-IR
Text: as §1, §2

[6] = type II diabetes patients n=10, 30 mg/day orally, 3 months, mean ± S.D.
[7] = type II diabetes patients n=10, 30 mg/day orally, logarithmic values, mean ± S.D.
[8] = type II diabetes patients n=10, 30 mg/day orally, mean ± S.D.
[9] = type II diabetes patients, three-month administration, given without sign

Question: With `CCc1ccc(CCOc2ccc(CC3SC(=O)NC3=O)cc2)nc1` (stereo not drawn) [pioglitazone] as the compound, how does the “Subcutaneous Fat Area, after the three-month trace” value ([1]; 3 months, CT at navel level) read?
Answer: 179 ± 81 cm^2

Question: And the “Visceral Fat Area, after the three-month trace” value ([1]; 3 months, CT at navel level)?
Answer: 180 ± 46 cm^2

Question: What about the “V/S ratio, after the three-month trace” value ([1]; 3 months, VFA divided by SFA) of the same compound?
Answer: 1.1 ± 0.3

Question: And the “Subcutaneous Fat Area, rate of changes in 3 months” value [1]?
Answer: 16.1 ± 18.7

Question: What about the “V/S ratio, rate of changes in 3 months” value [1] of the same compound?
Answer: −4.0 ± 11.2

Question: What about the “Visceral Fat Area, rate of changes in 3 months” value [1] of the same compound?
Answer: 11.3 ± 21.3

Question: What about the “Body Mass Index, after the three-month trace” value ([2]; 3 months) of the same compound?
Answer: 27.0 ± 3.5 kg/m^2

Question: What about the “Body Mass Index, rate of change in 3 months” value [2] of the same compound?
Answer: 2.1 ± 2.2

Question: What about the “Body mass index at diastolic blood pressure, rate of change in 3 months” value [2] of the same compound?
Answer: −6.3 ± 6.9

Question: What about the “Body mass index at systolic blood pressure, rate of change in 3 months” value [2] of the same compound?
Answer: −7.0 ± 4.9

Question: And the “Fasting blood glucose, after the three-month trace” value [3, 6]?
Answer: 7.0 ± 1.0^ mmol/l

Question: And the “HDL cholesterol, after the three-month trace” value [3, 6]?
Answer: 52.1 ± 7.3 mg/dL

Question: And the “HbA1c, after the three-month trace” value [3, 6]?
Answer: 6.1 ± 0.6^ %

Question: What about the “LDL cholesterol, after the three-month trace” value [3, 6] of the same compound?
Answer: 138 ± 24 mg/dL

Question: And the “Total cholesterol, after the three-month trace” value [3, 6]?
Answer: 218 ± 35 mg/dL

Question: And the “Triglyceride (log), after the three-month trace” value [3, 6]?
Answer: 127 ± 2 mg/dl

Question: What about the “Uric acid, after the three-month trace” value [3, 6] of the same compound?
Answer: 5.6 ± 1.3^ mg/dl

Question: And the “Triglyceride (log), rate of change in 3 months” value [3, 7]?
Answer: −1.0 ± 6.3

Question: What about the “Fasting blood glucose, rate of change in 3 months” value [3, 8] of the same compound?
Answer: −18.2 ± 9.3

Question: What about the “HDL cholesterol, rate of change in 3 months” value [3, 8] of the same compound?
Answer: 2.0 ± 11.2

Question: And the “HbA1c, rate of change in 3 months” value [3, 8]?
Answer: −9.0 ± 8.8

Question: And the “LDL cholesterol, rate of change in 3 months” value [3, 8]?
Answer: 12.3 ± 12.8

Question: What about the “Total cholesterol, rate of change in 3 months” value [3, 8] of the same compound?
Answer: 4.8 ± 10.9

Question: What about the “Uric acid, rate of change in 3 months” value [3, 8] of the same compound?
Answer: −5.0 ± 9.5

Question: And the “Rate of change of HbA1C over three months” value [3, 9]?
Answer: 9.0%

Question: What about the “Rate of change of blood glucose over three months” value [3, 9] of the same compound?
Answer: 18.2%

Question: And the “Elevation in serum adiponectin level, times higher than the baselines on average” value ([4]; 10 type II diabetes patients, three-month administration)?
Answer: 3 times

Question: What about the “GBP28 (log), after the three-month trace” value ([4]; type II diabetes patients n=10, 30 mg/day orally, 3 months, serum, mean ± S.D.) of the same compound?
Answer: 14.4 ± 2.1 μg/l

Question: What about the “GBP28 (log), rate of change in 3 months” value [4, 7] of the same compound?
Answer: 80.9 ± 58^

Question: And the “Rate of change of concentration of GBP28 over three months” value ([4]; type II diabetes patients, three-month administration)?
Answer: 80.9%

Question: What about the “HOMA-IR (log), after the three-month trace” value [5, 6] of the same compound?
Answer: 1.6 ± 1.3^

Question: What about the “Serum insulin (log), after the three-month trace” value [5, 6] of the same compound?
Answer: 30 ± 8 pmmol/l

Question: And the “HOMA-IR (log), rate of change in 3 months” value [5, 7]?
Answer: −62.6 ± 22.6

Question: And the “Serum insulin (log), rate of change in 3 months” value [5, 7]?
Answer: −23.7 ± 13.5

Question: And the “Rate of change of HOMA-IR over three months” value [5, 9]?
Answer: 62.6%

Question: What about the “Rate of change of serum insulin over three months” value [5, 9] of the same compound?
Answer: 23.7%
